Where no end group is shown, it is not given here.
Experiments:
[1] = test system: Escherichia coli (ATCC 25922); assay: microbe, parasite or virus in culture; assay type: cell-based; details: ATCC 25922, 24 h
Experimental: (§1) Two strains of G- bacteria, P. aeruginosa (Pa, ATCC 27853) and E. coli (Ec, ATCC 25922), were also used. Cultures stored at -80 °C in glycerol were transferred to Müller–Hinton plates (MH, Difco Laboratories, Detroit, MI, USA) and incubated for 24 h at 35 °C. Colonies of each strain were transferred to 5 mL liquid MH medium and left shaking (600 rpm) at room temperature overnight. An aliquot of actively growing bacteria (20 µL) was inoculated in 5 mL MH medium and left shaking for 2 h at room temperature. In order to have a sensitive bioassay, the bacterial cultures were diluted with medium to only 2.5–3 × 10^4 bacteria/mL and an aliquot of 50 µL was added to each well in 96 microwell plates (Thermo Fisher Scientific, Roskilde, Denmark) preloaded with peptide solution (50 µL). The antibacterial assays were performed as previously described. The microtiter plates were incubated for 24 h at 35 °C with optical density (595 nm) recorded every hour using an Envision 2103 multilabel reader, controlled by a Wallac Envision manager (PerkinElmer, Waltham, MA, USA). The minimum inhibitory concentration (MIC) was defined as the sample concentration showing an optical density less than 10% of the negative (growth) control, consisting of bacteria and MQ-H2O. Oxytetracycline (concentrations ranging from 20–0.02 µg/mL, Sigma-Aldrich) and indolicidin (concentration ranging from 200–0.2 µg/mL, Sigma-Aldrich) served as a positive (inhibition) control. The synthetic peptides were tested for antibacterial activity in concentrations ranging from 250 to 0.5 µg/mL in two-fold dilutions. All tests were performed in triplicates.

[2] = test system: Pseudomonas aeruginosa (ATCC 27853); assay: microbe, parasite or virus in culture; assay type: cell-based; details: ATCC 27853, 24 h
Experimental: as §1

Aureobasidium pullulans = assay: microbe, parasite or virus in culture; assay type: cell-based; details: 48 h
Experimental: (§2) StAMP-1–11 were screened for antifungal activity against C. albicans (Ca, ATCC 10231), A. pullulans (Ap) and Rhodotorula sp. (Rh) (the last two were obtained from professor Arne Tronsmo, The Norwegian University of Life Sciences, Ås, Norway). The antifungal assay was performed as previously described with a few modifications. Briefly, fungal spores were dissolved in potato dextrose broth (Difco Laboratories) with 2% D(+)-glucose (Merck, Darmstadt, Germany) to a concentration of 4 × 10^5 spores/mL. The spores (50 µL) were inoculated on 96 microwell plates (Thermo Fisher Scientific) containing the synthetic peptides (50 µL) and controls (water or antibiotic). The peptides were diluted in MQ-H2O at final concentrations ranging from 250–3.9 µg/mL in two-fold serial dilutions. Triclosan (Sigma-Aldrich, Steinheim, Germany) was used as a positive (antifungal) control (32–0.25 µg/mL), and MQ-H2O as a negative (growth) control. Cultures were grown in room temperature for 24 h (Ca) and 48 h (Ap and Rh). Growth inhibition was determined by measuring OD values at 600 nm by a microplate reader (Synergy H1 Hybrid Multi-Mode Reader, BioTek, Winooski, VT, USA). […] All experiments were done in triplicate.

[3] = test system: Candida albicans (ATCC 10231); assay: microbe, parasite or virus in culture; assay type: cell-based; details: ATCC 10231, 24 h
Experimental: as §2

Rhodotorula sp. = assay: microbe, parasite or virus in culture; assay type: cell-based; details: 48 h
Experimental: as §2

[4] = test system: all seven bacterial test strains; assay type: cell-based; details: 24 h
Experimental: (§3) The synthesized peptides were screened for antibacterial activity against five strains of G+ bacteria: B. subtilis (Bs, ATCC 23857), C. glutamicum (Cg, ATCC 13032), S. aureus (Sa, ATCC 9144), Micrococcus luteus (Ml), B. megaterium (Bm) (the last two were obtained from professor Olaf B. Styrvold, UiT The Arctic University of Norway).
as §1, with “The minimum inhibitory concentration (MIC) was defined as the sample concentration showing an optical density less than 10% of the negative (growth) control, consisting of bacteria and MQ-H2O. Oxytetracycline (concentrations ranging from 20–0.02 µg/mL, Sigma-Aldrich) and indolicidin (concentration ranging from 200–0.2 µg/mL, Sigma-Aldrich) served as a positive (inhibition) control. The synthetic peptides were tested for antibacterial activity in concentrations ranging from 250 to 0.5 µg/mL in two-fold dilutions. All tests were performed in triplicates.” left out

Micrococcus luteus = assay: microbe, parasite or virus in culture; assay type: cell-based; details: 24 h
Experimental: as §3, §1

[5] = test system: Staphylococcus aureus (ATCC 9144); assay: microbe, parasite or virus in culture; assay type: cell-based; details: ATCC 9144, 24 h
Experimental: as §3, §1

Bacillus megaterium = assay: microbe, parasite or virus in culture; assay type: cell-based; details: Bacillus, 24 h
Experimental: as §3, §1

[6] = test system: Bacillus subtilis (ATCC 23857); assay: microbe, parasite or virus in culture; assay type: cell-based; details: ATCC 23857, 24 h
Experimental: as §3, §1

[7] = test system: Corynebacterium glutamicum (ATCC 13032); assay: microbe, parasite or virus in culture; assay type: cell-based; details: ATCC 13032, 24 h
Experimental: as §3, §1

G- strains = assay: Antibacterial assay, MIC range over G- strains; assay type: cell-based; details: range over the two G- test strains
Experimental: as §3
as §1, with “The minimum inhibitory concentration (MIC) was defined as the sample concentration showing an optical density less than 10% of the negative (growth) control, consisting of bacteria and MQ-H2O. Oxytetracycline (concentrations ranging from 20–0.02 µg/mL, Sigma-Aldrich) and indolicidin (concentration ranging from 200–0.2 µg/mL, Sigma-Aldrich) served as a positive (inhibition) control. The synthetic peptides were tested for antibacterial activity in concentrations ranging from 250 to 0.5 µg/mL in two-fold dilutions. All tests were performed in triplicates.” left out

G+ strains = assay: Antibacterial assay, MIC range over G+ strains; assay type: cell-based; details: range over the five G+ test strains
Experimental: as §3
as §1, with “The minimum inhibitory concentration (MIC) was defined as the sample concentration showing an optical density less than 10% of the negative (growth) control, consisting of bacteria and MQ-H2O. Oxytetracycline (concentrations ranging from 20–0.02 µg/mL, Sigma-Aldrich) and indolicidin (concentration ranging from 200–0.2 µg/mL, Sigma-Aldrich) served as a positive (inhibition) control. The synthetic peptides were tested for antibacterial activity in concentrations ranging from 250 to 0.5 µg/mL in two-fold dilutions. All tests were performed in triplicates.” left out

three fungal strains = assay type: cell-based; details: 24 h
Experimental: as §2, with “Cultures were grown in room temperature for 24 h (Ca) and 48 h (Ap and Rh).” left out

B. subtilis 168 = assay: Real-time bacterial cell viability assay (lux operon); assay type: cell-based, Bacillus subtilis; details: lowest concentration tested
Text: (§4) A real-time cell viability assay was used to investigate the bactericidal effect of StAMP-6-10. B. subtilis 168 contains a chromosomally integrated lux operon, and E. coli K12 a plasmid-borne lux operon. Both strains emit light as long as they have an active metabolism. If a compound reduces the metabolic activity of the bacteria it will reduce the viability of the cells. […] The decrease in light emission caused by StAMP-8-10 shown in both assays confirmed that these three peptides killed both strains at 50 µg/mL, but not as rapidly as the control chlorhexidine. The same activity observed for StAMP-8-10 in the membrane integrity assay was also observed in both viability assays (Figures S7–S12). […] Only at the lowest concentration tested (0.8 µg/mL), was there no observed membrane activity for these assays.
(§5) A real-time cell viability assay (modified from) was performed using B. subtilis 168 carrying an optimized luxABCDE operon controlled by the promoter Pveg, and E. coli K12 carrying the plasmid pCGLS-11 [53] with the luxCDABE operon from Xenorhabdus luminescence. The procedure was conducted as previously described. The bacteria (~5 × 10^7 bacteria/mL) were subjected to ranging concentrations of StAMP-6-10 (50–3.1 µg/mL) and the positive control to chlorhexidine acetate (assay concentrations 100–1.6 µg/mL). MQ-H2O was used as a negative control. […]

E. coli K12 (pCSS962) = assay: Real-time membrane integrity assay (luciferase, D-luciferin); assay type: cell-based, Escherichia coli; details: lowest concentration tested
Text: (§6) Based on the results from antibacterial screening and the bacterial killing experiment, StAMP-6-10 were further studied for their immediate effect on the membrane integrity and viability on B. subtilis 168 and E. coli K12. In the integrity assay, both bacteria are carrying the luciferase lucGR gene within the plasmid pCSS962. When a compound disrupts the membrane, externally added D-luciferin can diffuse into the cells and function as a substrate for the luciferase enzyme. This, in turn, causes the emission of light as relative luminescence units (RLU), a signal whose strength is relative to the degree of membrane disruption in living cells. If the test compound affects the membrane sufficiently to cause bacterial death, the RLU signal will increase until the bacterial ATP storage is empty. At this time, the RLU signal will decrease in line with the decreasing ATP concentrations, as the enzymatic reaction gradually stops. […] Following membrane disruption, the RLU will reach its peak and start to decrease due to reduced cell numbers. In the assay setup used herein, RLU was measured over a period of 3 min. The short time period was selected as many membrane disruptive compounds usually affect the bacterial membranes immediately. […]

[8] = test system: B. subtilis 168 (pCSS962); assay: as above; assay type: cell-based, Bacillus subtilis; details: lowest concentration tested
Text: as §6

E. coli K12 (pCGLS-11) = assay: Real-time bacterial cell viability assay (lux operon); assay type: cell-based, Escherichia coli; details: lowest concentration tested
Text: as §4, §5

| Molecule | Antimicrobial Activity (MIC) Ec [1] [µg/mL] | Antimicrobial Activity (MIC) Pa [2] [µg/mL] | Antimicrobial Activity (MIC) Ap (Aureobasidium pullulans) [µg/mL] | Antimicrobial Activity (MIC) Ca [3] [µg/mL] | Antimicrobial Activity (MIC) Rh (Rhodotorula sp.) [µg/mL] | MIC values, range against all seven bacterial test strains [4] [µg/mL] | Antimicrobial Activity (MIC) Ml (Micrococcus luteus) [µg/mL] | Antimicrobial Activity (MIC) Sa [5] [µg/mL] | Antimicrobial Activity (MIC) Bm (Bacillus megaterium) [µg/mL] | Antimicrobial Activity (MIC) Bs [6] [µg/mL] | Antimicrobial Activity (MIC) Cg [7] [µg/mL] | MIC values, range against G- strains (G- strains) [µg/mL] | MIC values, range against G+ strains (G+ strains) [µg/mL] | MIC, range against the three fungal strains (three fungal strains) [µg/mL] | concentration with no observed membrane activity (B. subtilis 168) [µg/mL] | concentration with no observed membrane activity (E. coli K12 (pCSS962)) [µg/mL] | concentration with no observed membrane activity [8] [µg/mL] | concentration with no observed membrane activity (E. coli K12 (pCGLS-11)) [µg/mL] |
| --- | --- | --- | --- | --- | --- | --- | --- | --- | --- | --- | --- | --- | --- | --- | --- | --- | --- | --- |
| GRRPWWWRAR-NH2 [StAMP-9] | 7.8 | 31.3 | 31.3 | 31.3 | 15.6 | 1.0 to 31.3 | 3.9 | 7.8 | 1.0 | 3.9 | 2.0 |  |  |  |  |  |  |  |
| GKKPWWWKAK-NH2 [StAMP-7] | 31.3 | 250 | 15.6 | 31.3 | 15.6 |  | 31.3 | 125 | 1.0 | 3.9 | 2.0 | 31.3 to 250 | 1.0 to 125 |  |  |  |  |  |
| GKKWWWWKAK-NH2 [StAMP-8] | 62.5 | 125 | 7.8 | 15.6 | 15.6 |  | 15.6 | 125 | 3.9 | 7.8 | 7.8 |  |  | 7.8 to 15.6 |  |  |  |  |
| [H]/N=C(\N/C(=N/[H])NCCCCCCNC(=N)NC(=N)Nc1ccc(Cl)cc1)Nc1ccc(Cl)cc1 [Chlorhexidine] |  |  |  |  |  |  |  |  |  |  |  |  |  |  | 0.8 | 0.8 | 0.8 | 0.8 |
| GRRWWWWRAR-NH2 [StAMP-10] | 15.6 | 31.3 | 62.5 | 62.5 | 15.6 |  | 15.6 | 62.5 | 3.9 | 7.8 | 7.8 |  |  |  |  |  |  |  |
| GKKWGGWKAK-NH2 [StAMP-2] | >250 | >250 | 62.5 | 125 | 62.5 |  | 250 | >250 | 3.9 | 125 | 31.3 |  |  |  |  |  |  |  |
